Data taken from patent US20240366553A1, “ASPARTIC ACID COPPER COMPLEX, AND USE THEREOF” (GUANGZHOU INSIGHTER BIOTECHNOLOGY CO., LTD., priority 2021, published 2024).
Where two headings read alike, the source gives them in different places.

What was measured:
[1] = tested on: Lingnan yellow-feathered, fast-growing, and large-sized broilers; conditions: for Average feed consumption / Average weight gain / Feed-to-meat ratio / Survival rate (%) / Relative weight gain rate (%): broilers aged 1 to 21 days; for Relative weight gain rate (%): relative to control group; for Physical characteristics of the experimental chickens: experimental groups of compounds 1-7
Text: (§1) Experimental animals: 900 one-day-old Lingnan yellow-feathered, fast-growing, and large-sized broilers; 150 weaned piglets;
(§2) Feeds: basal feed for chickens and basal feed for pigs that contain no antimicrobial drugs, copper sources and growth promoters;
(§3) Experimental samples: compound 1, compound 2, compound 3, compound 4, compound 5, compound 6, compound 7,
900 one-day-old Lingnan yellow-feathered, fast-growing, and large-sized broilers were randomly divided into 18 groups (50 broilers/group). […] The broilers had free access to food. The weight gain and feed conversion of the experimental chickens (aged from 1 to 21 days) in each experimental group were recorded.

[2] = tested on: weaned piglets; conditions: for Average weight gain / Feed-to-meat ratio / Survival rate (%) / Total feed consumption / Total weight gain / Relative weight gain rate (%): weaned piglets, 30 days; for Total feed consumption / Total weight gain: 10 pigs; for Relative weight gain rate (%): control group = 100
Text: as §1, §2, §3
150 weaned piglets were grouped according to Table 2 (10 piglets/group). […] The piglets had free access to food. The weight gain and feed conversion of the experimental pigs in each experimental group were recorded within 30 days after […] weaning.

[3] = tested on: black carp (subyearlings); test: Use of aspartic acid copper complex in aquaculture feeds (black carp breeding experiment); type: in vivo; conditions: 30 mg/kg in feed (as copper ions), 8 weeks
Experimental: Experimental fishes: The experimental fishes used were black carp (subyearlings), which were provided by the Dafeng fish nursery (Huizhou city, Guangdong province). Healthy and active fingerling black carps (uniform in size) were fed for 4 weeks in a big net cage (4×2×1.5 m^3) and then the formal breeding experiment was carried out. The experimental systems were small floating net cages (1.1×1.1×1.1 m^3 in size). Each small net cage was provided with an air-filling head, which allowed for continuous inflation of the cages for 24 h a day. The small net cages and the acclimatization net cage were all placed in a 3500 m^2 pond in the experimental field. […] During the trial, 480 black carps (fasted for 1 d) were randomly divided into 10 groups, with 4 replicates for each group and 12 fishes in each replicate. After weighing as a whole, the black carps were randomly placed into […] and fed with different experimental feeds.
Experimental feeds: The experimental feeds were formulated following the formula in Table 5. According to Table 6, different copper element supplements (calculated based on the copper ions) were added to the feeds in different experimental groups, respectively. The feed raw materials were subjected to ultrafine grinding and then granulated into floating expanded feeds (3 mm) using an expansion machine from Jiangsu Muyang Corporation. The demolding temperature was 130° C. 3% soybean oil was externally sprayed using an oil spraying device. The finished product was sealed and stored in a cool place for later use.
Experimental management: During the trial, the carps were manually fed in a restricted dose. The feeding dose was adjusted once a week, and the doses for all groups (based on the initial body weight) were completely consistent. The carps were fed twice a day (at 7:30 and 15:00). The experiment lasted for 8 weeks. During the trial, the water quality was regularly monitored, and throughout the breeding, the water temperature was kept at 26.88±3.08° C., DO>5.0 mg O L^−1, pH 7.8, ammonia nitrogen<0.50 mg NL^−1, and nitrite-nitrogen<0.05 mg N L^−1.
Parametric statistics: During the trial, the carps in each net cage were weighed as a whole one day after discontinuation of feeding, and the average weight gain (g) and feed-to-meat ratio were calculated. The calculation formulas are as follows:
Average weight gain (g)=Average final weight−Average initial weight; Feed-to-meat ratio=Food intake/Weight gain of fishes;

[4] = 5 mg/kg in feed (as copper ion)
[5] = 50 mg/kg in feed (as copper ion)
[6] = 100 mg/kg in feed (as copper ion)
[7] = 200 mg/kg in feed (as copper ion)
[8] = 300 mg/kg in feed (as copper ion)
[9] = group 1-30: 30 mg/kg in feed (as copper ion)
[10] = 8 mg/kg in feed (as copper ion)
[11] = group 1-200: 200 mg/kg in feed (as copper ion)

## N[C@@H](CC(=O)[O-])C(=O)[O-].O.O.[Cu+2] [Compound 1, [(Cu(II))(L-Asp)(H2O)2]]
[1]; [4]
  Average feed consumption: 916 g
  Average weight gain: 497 g
  Feed-to-meat ratio: 1.843
  Survival rate (%): 100%
  Relative weight gain rate (%): 104.9%
[1]; [5]
  Average feed consumption: 923 g
  Average weight gain: 518 g
  Feed-to-meat ratio: 1.782
  Survival rate (%): 100%
  Relative weight gain rate (%): 109.3%
[1]; [6]
  Average feed consumption: 970 g
  Average weight gain: 546 g
  Feed-to-meat ratio: 1.777
  Survival rate (%): 100%
  Relative weight gain rate (%): 115.2%
[1]; [7]
  Average feed consumption: 1004 g
  Average weight gain: 567 g
  Feed-to-meat ratio: 1.771
  Survival rate (%): 100%
  Relative weight gain rate (%): 119.6%
[1]; [8]
  Average feed consumption: 926 g
  Average weight gain: 526 g
  Feed-to-meat ratio: 1.760
  Survival rate (%): 100%
  Relative weight gain rate (%): 111.0%
[1]; addition amount of 50-100 mg/kg
  Dose effect in the experimental results (broilers): exhibited a dose effect
[1]
  Physical characteristics of the experimental chickens: normal physical characteristics
[1]; [9]
  Average feed consumption: 919 g
  Average weight gain: 511 g
  Feed-to-meat ratio: 1.798
  Survival rate (%): 100%
  Relative weight gain rate (%): 107.8%
[2]; [10]
  Average weight gain: 11.26 kg
  Feed-to-meat ratio: 2.268
  Survival rate (%): 100%
  Total feed consumption: 255.34 kg
  Total weight gain: 112.6 kg
  Relative weight gain rate (%): 103.30%
[2]; [5]
  Average weight gain: 12.12 kg
  Feed-to-meat ratio: 2.121
  Survival rate (%): 100%
  Total feed consumption: 257.08 kg
  Total weight gain: 121.2 kg
  Relative weight gain rate (%): 111.19%
[2]; [6]
  Average weight gain: 12.21 kg
  Feed-to-meat ratio: 2.112
  Survival rate (%): 100%
  Total feed consumption: 257.86 kg
  Total weight gain: 122.1 kg
  Relative weight gain rate (%): 112.02%
[2]; 8-200 mg/kg groups
  Dose effect on improving the production performance of the experimental pigs: exhibited a dose effect
[2]; dose of 50 mg/kg, comparator copper sulfate 250 mg/kg
  Growth-promoting effect and feed conversion rate versus high-level copper sulfate group: close to those achieved in the high-level copper sulfate group
[2]; [9]
  Average weight gain: 11.66 kg
  Feed-to-meat ratio: 2.205
  Survival rate (%): 100%
  Total feed consumption: 257.09 kg
  Total weight gain: 116.6 kg
  Relative weight gain rate (%): 106.97%
[2]; [11]
  Average weight gain: 12.34 kg
  Feed-to-meat ratio: 2.093
  Survival rate (%): 100%
  Total feed consumption: 258.28 kg
  Total weight gain: 123.4 kg
  Relative weight gain rate (%): 113.21%
[2]; used at the same doses (50 mg/kg)
  Improvement in the feed conversion of the experimental pigs compared with compound 4: about 2 fold
[3]
  Average weight gain: 357 g
  Feed-to-meat ratio: 1.401

## NC(CC(=O)[O-])C(=O)[O-].O.O.[Cu+2] (racemic) [Compound 7, [(Cu(II))(DL-Asp)(H2O)2]·(H2O)0.16]
[1]; [5]
  Average feed consumption: 921 g
  Average weight gain: 515 g
  Feed-to-meat ratio: 1.789
  Survival rate (%): 100%
  Relative weight gain rate (%): 108.6%
[1]
  Physical characteristics of the experimental chickens: normal physical characteristics
[2]; [5]
  Average weight gain: 12.16 kg
  Feed-to-meat ratio: 2.198
  Survival rate (%): 100%
  Total feed consumption: 267.33 kg
  Total weight gain: 121.6 kg
  Relative weight gain rate (%): 111.6%
[3]
  Average weight gain: 350 g
  Feed-to-meat ratio: 1.429

## N[C@@H](CC(=O)[O-])C(=O)[O-].[Cu+2] (racemic) [Compound 6, [(Cu(II))(DL-Asp)]]
[1]; [5]
  Average feed consumption: 912 g
  Average weight gain: 510 g
  Feed-to-meat ratio: 1.789
  Survival rate (%): 100%
  Relative weight gain rate (%): 107.6%
[1]
  Physical characteristics of the experimental chickens: normal physical characteristics
[2]; [5]
  Average weight gain: 12.08 kg
  Feed-to-meat ratio: 2.173
  Survival rate (%): 100%
  Total feed consumption: 262.46 kg
  Total weight gain: 120.8 kg
  Relative weight gain rate (%): 110.8%
[3]
  Average weight gain: 353 g
  Feed-to-meat ratio: 1.416
